Assay results taken from patent US20260265246A1 (ICAHN SCHOOL OF MEDICINE AT MOUNT SINAI, priority 2021, published 2026).
Like-named read-outs stand apart in the source and are kept apart here.

Assays:
5HT2A receptor [1] = molecular target: T1, 5HT2A receptor (Homo sapiens, UniProt P28223); assay: cell-based; set-up: expressed in transfected cells; host or cells: HEK293T cells, transient co-transfection; conditions: BRET1 beta-arrestin2 recruitment, HEK293T cells; for Emax: HEK-293T, normalized to 5-HT, read-out: 5HT2A β-Arr Emax (%)
T1 sequence (P28223 whole entry): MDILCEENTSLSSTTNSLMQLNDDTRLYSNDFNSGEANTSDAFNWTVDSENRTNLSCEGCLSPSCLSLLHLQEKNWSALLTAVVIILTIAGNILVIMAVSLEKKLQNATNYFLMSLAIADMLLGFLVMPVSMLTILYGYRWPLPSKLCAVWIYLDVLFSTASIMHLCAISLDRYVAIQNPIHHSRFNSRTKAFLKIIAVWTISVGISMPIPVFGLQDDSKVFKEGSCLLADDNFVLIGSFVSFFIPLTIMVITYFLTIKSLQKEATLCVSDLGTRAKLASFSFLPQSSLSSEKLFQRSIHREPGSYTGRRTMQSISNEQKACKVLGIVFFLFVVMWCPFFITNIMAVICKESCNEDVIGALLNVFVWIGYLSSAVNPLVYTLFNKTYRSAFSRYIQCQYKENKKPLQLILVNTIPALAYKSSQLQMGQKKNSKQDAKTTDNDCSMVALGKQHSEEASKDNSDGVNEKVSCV

5HT2A receptor [2] = molecular target: T1, 5HT2A receptor; assay: biochemical; type: binding; set-up: expressed in transfected cells; crude membranes; conditions: secondary radioligand binding, Ki from IC50 by Cheng-Prusoff
5HT2A receptor [3] = molecular target: T1, 5HT2A receptor; assay: cell-based; set-up: expressed in transfected cells; host or cells: HEK293T cells, transient co-transfection; conditions: BRET2 Gαq dissociation, HEK293T cells; for Emax: HEK-293T, normalized to 5-HT, read-out: 5HT2A Gq Emax (%)

SMILES | EC50 (5HT2A receptor [1]; read-out: 5HT2A β-Arr EC50) [nM] | Emax (5HT2A receptor [1]) [%] | Ki (5HT2A receptor [2]; read-out: 5HT2A Ki) [nM] | EC50 (5HT2A receptor [3]; read-out: 5HT2A Gq EC50) [nM] | Emax (5HT2A receptor [3]) [%] | EC50 (5HT2A receptor [1]; 5HT2A β-Arr EC50 (nM)) [nM] | Ki (5HT2A receptor [2]; 5HT2A Ki (nM)) [nM] | EC50 (5HT2A receptor [3]; 5HT2A Gq EC50 (nM)) [nM]
CN1CCC=C(c2c[nH]c3c(F)cccc23)C1 [Example 56, 7-fluoro-3-(1-methyl-1,2,5,6-tetrahydropyridin-3-yl)-1H-indole] | 57.7 | 49.5 | 59.8 | 16.8 | 96.9 | – | – | –
CN1CCC=C(c2c[nH]c3c(C(F)(F)F)cccc23)C1 [Example 59, 3-(1-methyl-1,2,5,6-tetrahydropyridin-3-yl)-7-(trifluoromethyl)-1H-indole] | 75.5 | 56.9 | 25.8 | 17.8 | 81.7 | – | – | –
CCc1[nH]c2ccccc2c1C1=CCCNC1 [Example 62, 2-ethyl-3-(1,2,5,6-tetrahydropyridin-3-yl)-1H-indole] | – | 45.1 | – | 75.7 | 49.1 | 633 | 810 | –
Clc1[nH]c2ccccc2c1C1=CCCNC1 [Example 64, 2-chloro-3-(1,2,5,6-tetrahydropyridin-3-yl)-1H-indole] | – | 60.2 | – | – | 91.8 | 219 | 186 | 61.9
Clc1cccc2c(C3=CCCN(Cc4ccccc4)C3)c[nH]c12 [Example 67, 3-(1-benzyl-1,2,5,6-tetrahydropyridin-3-yl)-7-chloro-1H-indole] | – | 46.6 | – | – | 48.8 | 756 | 90.2 | 44.1
Cc1cccc2c(C3=CCCN(Cc4ccccc4)C3)c[nH]c12 [Example 68, 3-(1-benzyl-1,2,5,6-tetrahydropyridin-3-yl)-7-methyl-1H-indole] | – | 42.4 | – | – | 40.2 | 490 | 115 | 127
CCc1cccc2c(C3=CCCN(Cc4ccccc4)C3)c[nH]c12 [Example 69, 3-(1-benzyl-1,2,5,6-tetrahydropyridin-3-yl)-7-ethyl-1H-indole] | – | 63.5 | – | – | 49.7 | 1740 | 199 | 98.2
Fc1cccc2c(C3=CCCN(Cc4ccccc4)C3)c[nH]c12 [Example 73, 3-(1-benzyl-1,2,5,6-tetrahydropyridin-3-yl)-7-fluoro-1H-indole] | – | 56.5 | – | – | 81.9 | 331 | 151 | 116
Cc1ccc2c(C3=CCCNC3)n[nH]c2c1 [Example 76, 6-methyl-3-(1,2,5,6-tetrahydropyridin-3-yl)-1H-indazole] | – | 88.7 | – | – | 93.6 | 1500 | 2460 | 118
Clc1ccc2c(C3=CCCNC3)n[nH]c2c1 [Example 77, 6-chloro-3-(1,2,5,6-tetrahydropyridin-3-yl)-1H-indazole] | – | 76.7 | – | 38.9 | 93.9 | 430 | 439 | –
Fc1ccc2c(C3=CCCNC3)n[nH]c2c1 [Example 78, 6-fluoro-3-(1,2,5,6-tetrahydropyridin-3-yl)-1H-indazole] | 115 | 59.4 | 57.6 | 11.5 | 79.4 | – | – | –
N#Cc1ccc2c(C3=CCCNC3)n[nH]c2c1 [Example 79, 3-(1,2,5,6-tetrahydropyridin-3-yl)-1H-indazole-6-carbonitrile] | – | 82.1 | – | – | 48.6 | 1710 | 441 | 874
Cc1cccc2[nH]nc(C3=CCCNC3)c12 [Example 80, 4-methyl-3-(1,2,5,6-tetrahydropyridin-3-yl)-1H-indazole] | – | 71.8 | – | 73.8 | 83.4 | 698 | 254 | –
Fc1cccc2[nH]nc(C3=CCCNC3)c12 [Example 81, 4-fluoro-3-(1,2,5,6-tetrahydropyridin-3-yl)-1H-indazole] | – | 75.7 | – | 26.5 | 92.3 | 211 | 348 | –
N#Cc1cccc2[nH]nc(C3=CCCNC3)c12 [Example 82, 3-(1,2,5,6-tetrahydropyridin-3-yl)-1H-indazole-4-carbonitrile] | – | 87.9 | – | 12 | 95.9 | 562 | 153 | –
COc1cccc2[nH]nc(C3=CCCNC3)c12 [Example 83, 4-methoxy-3-(1,2,5,6-tetrahydropyridin-3-yl)-1H-indazole] | 109 | 75.9 | 78.8 | 12.5 | 81.7 | – | – | –
